Assay results taken from ChEMBL document CHEMBL1201862, “PubChem BioAssay data set” (2004).
Activity calls are given as the source filed them.

Tests used:
[1] = A cytotoxicity screen of small molecule inhibitors of the PhoP region in Salmonella typhi identified in the primary screen. [Related pubchem assays: 1850, 1864, 1985 ]; assay type: functional
[2] = inhibitors of SNCA 5'UTR-driven reporter translation, confirmation, H4 neuroglioma cells, luminescence (AID 1988); assay type: functional, cell-based
BJ [3] = experiment: cells; assay type: functional, cell-based; details: Homo sapiens
BJ [4] = experiment: cytotoxicity toward BJ-TERT fibroblasts, dose response, cell-based, RAS-independent, luminescence (AID 1933); assay type: functional; details: Homo sapiens
[5] = cytotoxicity toward DRD oncogenic fibroblasts, dose response, cell-based, non-viral oncogenic, luminescence (AID 1934); assay type: functional; details: Homo sapiens
BJ [6] = experiment: cytotoxicity toward BJ-TERT-LT-ST fibroblasts, dose response, cell-based, RAS-independent, luminescence (AID 1935); assay type: functional; details: Homo sapiens;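 note: BJ fibroblasts immortalized with TERT plus LT and ST oncogenes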
[7] = inhibitors of firefly luciferase expression or activity, dose response, H4 neuroglioma cells, luminescence (AID 1990); assay type: functional, cell-based
[8] = Luminescence Cell-Based Dose Response HTS to Identify Inhibitors of 5'UTR Stem-Loop Driven Prion Protein mRNA Translation in H4 Neuroglioblastoma Cells. [Related pubchem assays: 1827 (Project Summary), 1813 (Primary HTS)]; assay type: functional
Fatty acid synthase [9] = target: T1, Fatty acid synthase (Homo sapiens, UniProt P49327); experiment: FAS thioesterase domain inhibitors, dose response, biochemical, kinetic fluorescence intensity (AID 624326); assay type: functional;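 note: rate of fluorescence rise from hydrolysis of a fluorogenic O-methyl fluorescein ester substrate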
T1 sequence (P49327 whole entry, the tested form may be a part): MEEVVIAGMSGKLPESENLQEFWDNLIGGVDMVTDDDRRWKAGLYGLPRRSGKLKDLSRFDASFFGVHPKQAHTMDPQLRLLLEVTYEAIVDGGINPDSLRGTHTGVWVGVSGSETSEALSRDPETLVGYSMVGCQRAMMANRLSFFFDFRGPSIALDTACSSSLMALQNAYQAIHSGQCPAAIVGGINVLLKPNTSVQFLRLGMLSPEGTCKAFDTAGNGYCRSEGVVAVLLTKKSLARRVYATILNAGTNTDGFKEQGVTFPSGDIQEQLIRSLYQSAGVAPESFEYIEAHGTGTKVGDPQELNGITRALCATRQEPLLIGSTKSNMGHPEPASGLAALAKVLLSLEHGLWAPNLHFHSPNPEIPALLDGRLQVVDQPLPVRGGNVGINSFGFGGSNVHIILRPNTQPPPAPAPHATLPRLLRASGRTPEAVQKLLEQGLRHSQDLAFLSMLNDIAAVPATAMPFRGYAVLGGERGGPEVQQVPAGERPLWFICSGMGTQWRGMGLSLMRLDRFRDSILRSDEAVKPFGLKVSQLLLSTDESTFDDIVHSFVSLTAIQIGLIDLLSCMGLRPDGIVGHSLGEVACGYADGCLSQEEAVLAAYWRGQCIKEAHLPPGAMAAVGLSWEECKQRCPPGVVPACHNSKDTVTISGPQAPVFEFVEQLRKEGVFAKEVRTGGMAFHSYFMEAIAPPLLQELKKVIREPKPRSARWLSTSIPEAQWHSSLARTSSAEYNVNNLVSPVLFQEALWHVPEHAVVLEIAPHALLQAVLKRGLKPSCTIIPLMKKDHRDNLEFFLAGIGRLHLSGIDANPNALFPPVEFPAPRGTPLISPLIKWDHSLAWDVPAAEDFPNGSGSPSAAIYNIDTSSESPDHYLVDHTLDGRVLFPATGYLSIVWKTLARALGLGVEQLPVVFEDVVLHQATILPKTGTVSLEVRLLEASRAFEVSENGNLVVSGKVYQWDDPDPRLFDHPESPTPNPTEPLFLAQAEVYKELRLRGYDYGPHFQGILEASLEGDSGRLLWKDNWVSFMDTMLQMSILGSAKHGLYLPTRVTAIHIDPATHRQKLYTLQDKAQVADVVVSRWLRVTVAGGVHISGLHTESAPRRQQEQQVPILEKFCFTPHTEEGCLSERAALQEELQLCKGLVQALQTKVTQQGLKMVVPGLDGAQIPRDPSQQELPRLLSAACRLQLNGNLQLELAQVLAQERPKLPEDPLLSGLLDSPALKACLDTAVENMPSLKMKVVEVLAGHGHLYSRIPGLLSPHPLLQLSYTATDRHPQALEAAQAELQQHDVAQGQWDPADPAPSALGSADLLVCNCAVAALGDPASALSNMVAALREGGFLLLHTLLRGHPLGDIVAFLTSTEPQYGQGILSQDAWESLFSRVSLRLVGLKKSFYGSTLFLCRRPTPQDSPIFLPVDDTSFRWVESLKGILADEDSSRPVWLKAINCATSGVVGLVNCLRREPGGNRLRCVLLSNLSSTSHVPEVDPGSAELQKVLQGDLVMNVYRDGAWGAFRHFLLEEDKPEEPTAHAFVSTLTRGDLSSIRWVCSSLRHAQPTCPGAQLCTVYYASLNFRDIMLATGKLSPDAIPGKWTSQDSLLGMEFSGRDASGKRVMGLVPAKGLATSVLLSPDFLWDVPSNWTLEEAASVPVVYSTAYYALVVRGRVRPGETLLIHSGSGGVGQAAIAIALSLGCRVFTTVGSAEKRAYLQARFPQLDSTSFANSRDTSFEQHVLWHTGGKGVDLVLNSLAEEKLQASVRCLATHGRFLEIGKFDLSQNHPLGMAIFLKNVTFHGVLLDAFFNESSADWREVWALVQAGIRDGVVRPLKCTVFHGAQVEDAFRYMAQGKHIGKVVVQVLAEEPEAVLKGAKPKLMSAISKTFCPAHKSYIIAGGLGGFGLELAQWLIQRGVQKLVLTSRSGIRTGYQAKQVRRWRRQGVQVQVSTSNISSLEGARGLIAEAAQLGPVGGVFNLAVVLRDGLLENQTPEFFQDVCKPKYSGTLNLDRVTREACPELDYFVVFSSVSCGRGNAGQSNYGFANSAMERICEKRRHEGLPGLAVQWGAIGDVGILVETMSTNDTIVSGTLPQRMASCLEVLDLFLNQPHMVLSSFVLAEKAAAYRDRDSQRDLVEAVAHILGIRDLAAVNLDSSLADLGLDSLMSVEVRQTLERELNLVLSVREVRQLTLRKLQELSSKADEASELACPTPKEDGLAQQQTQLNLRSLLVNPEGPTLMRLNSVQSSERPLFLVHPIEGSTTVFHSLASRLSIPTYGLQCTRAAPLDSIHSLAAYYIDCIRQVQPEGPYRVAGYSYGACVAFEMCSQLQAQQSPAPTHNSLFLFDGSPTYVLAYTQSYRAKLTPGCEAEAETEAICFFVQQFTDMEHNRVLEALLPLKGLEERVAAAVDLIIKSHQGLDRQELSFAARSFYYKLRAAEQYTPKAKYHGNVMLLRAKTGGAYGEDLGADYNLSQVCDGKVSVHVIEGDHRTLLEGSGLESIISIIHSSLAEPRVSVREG

Streptococcus = experiment: Group A Streptococcus viability loss, dose response, counter-screen for streptokinase expression inhibitor project, luminescence, BacTiterGlo (AID 1915); assay type: functional, organism-based;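 note: potency for reduction of bacterial viability or growth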
Fatty acid synthase [10] = target: T1, Fatty acid synthase; experiment: FAS thioesterase domain inhibitors, dose response, biochemical, endpoint fluorescence intensity, uHTS hits (AID 624327); assay type: functional;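 note: fluorescence from hydrolysis of an O-methyl fluorescein acyl ester substrate by the enzyme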
[11] = system: Streptococcus sp. 'group A'; experiment: growth inhibition of control SK(-) GAS strain, dose response, counter-screen for streptokinase expression inhibitor project, luminescence, kanamycin, BacTiterGlo, confirmation (AID 1900); assay type: functional, organism-based
[12] = target: Induced myeloid leukemia cell differentiation protein Mcl-1 (Homo sapiens, UniProt Q07820); assay type: functional
Chain of Induced myeloid leukemia cell differentiation protein Mcl-1 (Q07820 whole entry): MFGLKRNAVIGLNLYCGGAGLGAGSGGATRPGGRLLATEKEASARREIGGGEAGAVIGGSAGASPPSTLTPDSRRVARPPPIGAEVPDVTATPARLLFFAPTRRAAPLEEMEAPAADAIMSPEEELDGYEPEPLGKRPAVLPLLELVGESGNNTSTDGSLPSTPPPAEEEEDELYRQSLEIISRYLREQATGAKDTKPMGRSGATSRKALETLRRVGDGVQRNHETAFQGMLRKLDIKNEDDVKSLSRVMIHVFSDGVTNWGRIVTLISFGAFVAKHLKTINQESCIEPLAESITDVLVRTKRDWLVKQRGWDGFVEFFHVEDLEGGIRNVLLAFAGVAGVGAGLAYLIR

[13] = target: T2, Calpain-2 catalytic subunit (Sus scrofa, UniProt P43367); experiment: pig calpain II inhibitor potency, dose response, biochemical, fluorogenic peptide substrate (AID 1420); assay type: functional
T2 sequence (P43367 whole entry): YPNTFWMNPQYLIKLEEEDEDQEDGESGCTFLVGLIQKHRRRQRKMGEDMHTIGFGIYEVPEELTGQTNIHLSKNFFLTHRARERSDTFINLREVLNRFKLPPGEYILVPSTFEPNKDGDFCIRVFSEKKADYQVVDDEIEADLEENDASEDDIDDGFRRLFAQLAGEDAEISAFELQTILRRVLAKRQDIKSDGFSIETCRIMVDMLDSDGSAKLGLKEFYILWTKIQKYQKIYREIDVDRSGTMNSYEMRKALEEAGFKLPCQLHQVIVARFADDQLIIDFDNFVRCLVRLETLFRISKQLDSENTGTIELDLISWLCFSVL

cells [14] = assay type: functional, cell-based
cells [15] = assay type: functional, cell-based; remark: listed apart in the source
Leucine aminopeptidase = target: T3, Leucine aminopeptidase (Plasmodium falciparum 3D7, UniProt Q8IL11); experiment: P. falciparum M17LAP inhibitors, primary screen, biochemical, fluorogenic H-Leu-NHMec substrate, 1536-well (AID 1619); assay type: functional
T3 sequence (Q8IL11 whole entry): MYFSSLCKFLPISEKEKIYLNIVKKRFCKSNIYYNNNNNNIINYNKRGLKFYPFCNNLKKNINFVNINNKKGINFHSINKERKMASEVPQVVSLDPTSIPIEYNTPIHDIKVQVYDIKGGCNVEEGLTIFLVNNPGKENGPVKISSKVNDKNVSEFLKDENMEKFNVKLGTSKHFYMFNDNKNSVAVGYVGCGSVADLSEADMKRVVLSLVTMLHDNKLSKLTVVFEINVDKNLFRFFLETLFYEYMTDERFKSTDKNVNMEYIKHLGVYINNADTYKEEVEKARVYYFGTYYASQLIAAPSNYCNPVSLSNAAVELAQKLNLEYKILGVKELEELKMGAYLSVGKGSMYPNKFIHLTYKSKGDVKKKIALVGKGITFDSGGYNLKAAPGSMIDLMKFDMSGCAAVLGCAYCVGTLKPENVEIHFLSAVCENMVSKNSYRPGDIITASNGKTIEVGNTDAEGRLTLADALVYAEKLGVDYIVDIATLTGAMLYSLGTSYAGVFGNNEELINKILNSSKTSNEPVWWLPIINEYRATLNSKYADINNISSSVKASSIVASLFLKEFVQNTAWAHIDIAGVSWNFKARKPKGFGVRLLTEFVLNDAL

[16] = target: T4, DNA repair protein RAD52 homolog (Homo sapiens, UniProt P43351); assay type: functional, biochemical
T4 sequence (P43351 whole entry): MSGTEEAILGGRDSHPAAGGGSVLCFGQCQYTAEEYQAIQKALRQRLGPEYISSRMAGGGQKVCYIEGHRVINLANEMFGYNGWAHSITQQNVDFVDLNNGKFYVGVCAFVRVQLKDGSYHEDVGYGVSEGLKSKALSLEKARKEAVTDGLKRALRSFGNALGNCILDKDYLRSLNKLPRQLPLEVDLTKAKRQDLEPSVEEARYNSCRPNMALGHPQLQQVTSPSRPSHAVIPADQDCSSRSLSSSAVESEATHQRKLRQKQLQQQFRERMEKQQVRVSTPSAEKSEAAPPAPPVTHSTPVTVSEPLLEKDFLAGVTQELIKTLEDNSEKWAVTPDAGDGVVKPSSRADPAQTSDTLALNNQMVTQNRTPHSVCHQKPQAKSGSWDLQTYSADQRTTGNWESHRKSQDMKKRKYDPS

[17] = growth suppression of beta-catenin-knockout colon cells, dose response, cell-based, HCT116, human colon tumor (AID 1045); assay type: functional;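 note: HCT116 colon tumor cells with beta catenin knocked out; cells exposed to compound for 60 hours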
[18] = cytotoxicity toward NIH3T3 fibroblasts, dose response, counter-screen, cell-based, ATP luminescence, mouse fibroblasts (AID 2010); assay type: functional;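 note: cells exposed to compound for about 90 hours before reading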
[19] = inhibitors of intracellular T. cruzi replication, confirmation, NIH3T3 host cells, beta-gal luminescence (AID 2044); assay type: functional, cell-based;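 note: intracellular parasites grown in NIH/3T3 mouse fibroblasts as host cells; luminescent beta-galactosidase reporter signal from transgenic T. cruzi replicating inside host cells; inhibitors lower the luminescence signal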
[20] = target: T5, Ubiquitin-conjugating enzyme E2 N (Homo sapiens, UniProt P61088); assay type: functional;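 note: Dose-response confirmation in a TR-FRET assay detecting UBC13-driven polyubiquitin chain formation, inhibition measured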
T5 sequence (P61088 whole entry): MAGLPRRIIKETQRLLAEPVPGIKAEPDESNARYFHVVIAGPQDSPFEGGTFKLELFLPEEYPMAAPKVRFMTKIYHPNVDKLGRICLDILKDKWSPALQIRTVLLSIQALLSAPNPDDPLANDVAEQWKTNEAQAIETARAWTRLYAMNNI

[21] = growth suppression of PTEN-null colon cells, dose response, cell-based, HCT116 PTEN knockout (AID 1047); assay type: functional;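 note: HCT116 colon tumor cells with PTEN knocked out; cells exposed to compound for 60 hours before readout; potency for loss of cell viability measured by luminescence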
INS1 = experiment: beta cell apoptosis inhibitors, cytokine rescue, dose response, luminescence, retest (AID 449756); assay type: functional, cell-based; details: Rattus norvegicus;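 note: cell death triggered by IL-1 beta plus TNF-alpha plus IFN-gamma mixture; protective hits raise ATP signal compared with cytokine alone wells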

For `S=C(Nc1ccccc1Cl)N(Cc1ccccc1)Cc1ccccn1`, which EC50 [1] is on record?
The EC50 was > 50 µM (active).

With `CCN(CC(=O)NCc1ccc(F)cc1)C(=O)/C=C/c1ccc(OC)c(S(=O)(=O)NC(C)C)c1` as the compound, how does the EC50 [2] read?
The EC50 was 9.81 µM (active).

What about the EC50 (BJ [3]) of the same compound?
Its EC50 is 13.4 µM (active).

And the EC50 (BJ [4])?
Its EC50 is 9.24 µM (inconclusive).

What about the EC50 [5] of the same compound?
Its EC50 is 13.7 µM (inconclusive).

And the EC50 (BJ [6])?
Its EC50 is 4.34 µM (inconclusive).

What about the EC50 [7] of the same compound?
The EC50 was > 120 µM (not active).

And the EC50 [8]?
Its EC50 is > 120 µM (not active).

With `O=C(O)c1ccc(N/N=C/c2ccc(-c3ccc(Cl)cc3Cl)o2)cc1` as the compound, how does the IC50 (Fatty acid synthase [9]) read?
The IC50 was 3.65 µM (active).

What about the EC50 (Streptococcus) of the same compound?
The EC50 was 2.33 µM (active).

And the IC50 (Fatty acid synthase [10])?
Its IC50 is 7.07 µM (active).

And the EC50 [11]?
Its EC50 is 1.46 µM (active).

And the IC50 [12]?
Its IC50 is 3.56 µM (active).

For `CCOC(=O)[C@H]1O[C@@H]1C(=O)N[C@@H](CC(C)C)C(=O)NCCC(C)C` [ALOXISTATIN], which IC50 [13] is on record?
Its IC50 is 1.77 µM (active).

With `O=C(N/N=C/c1ccc(N2CCCC2)c([N+](=O)[O-])c1)c1cccnc1` as the compound, how does the EC50 [1] read?
The EC50 was > 50 µM (active).

What does the source list for `CN(C)c1ccc(CNC(=O)CCS(=O)(=O)c2ccc3c(c2)oc(=O)n3C)cc1`?
EC50 (cells [14]): > 350 µM (not active); EC50 (cells [15]): > 350 µM (not active)

With `O=C(CN1C(=O)CCSc2ccccc21)Nc1ccc2c(c1)OCCO2` as the compound, how does the IC50 (Leucine aminopeptidase) read?
Its IC50 is 16.1 µM (active).

For `CC(C(=O)NCCC1=CCCCC1)c1ccc([N+](=O)[O-])cc1` (stereo not given), which IC50 (Fatty acid synthase [9]) is on record?
Its IC50 is 5.99 µM (active).

What about the IC50 (Fatty acid synthase [10]) of the same compound?
The IC50 was 5.76 µM (active).

With `Cc1cccc(NS(=O)(=O)c2ccc3c(c2)OCCO3)c1` as the compound, how does the EC50 [1] read?
Its EC50 is > 50 µM (active).

Which results are given for `O=C(CN(Cc1ccc(F)cc1)C(=O)CCC(=O)Nc1nccs1)NCC1CCCO1` (stereo not given)?
EC50 (cells [14]): > 350 µM (not active); EC50 (cells [15]): 35.3 µM (active)

Which EC50 [1] does the source give for `CCCCNC(=O)CCC(=O)Nc1ccc2nc(N3CCC(C)CC3)cc(C)c2c1` here?
Its EC50 is > 50 µM (active).

Which AC50 [16] does the source give for `CCN(CC)CCNc1nc(-c2cccs2)c(CC(=O)O)s1` here?
The AC50 was 14 µM (active).

With `c1ccc(CN2CCC(N3CCN(Cc4ccc5c(c4)OCO5)CC3)CC2)cc1` as the compound, how does the EC50 [1] read?
The EC50 was > 50 µM (active).

Which EC50 [17] does the source give for `CCc1ccc(OCC(O)CN2CCC(CN3C(=O)c4cccc5cccc(c45)C3=O)CC2)cc1` (stereo not given) here?
Its EC50 is 5.43 µM (active).

And the EC50 [18]?
Its EC50 is > 60 µM (not active).

And the EC50 [19]?
Its EC50 is 1.84 µM (active).

And the IC50 [20]?
Its IC50 is > 20 µM (inactive).

What about the EC50 [21] of the same compound?
Its EC50 is 6.53 µM (active).

Which EC50 [17] does the source give for `CCOC(=O)c1c(NC(=O)c2cc(-c3ccc(Cl)s3)nc3ccccc23)sc(C(N)=O)c1C` here?
The EC50 was 7.35 µM (active).

What about the AC50 (INS1) of the same compound?
Its AC50 is 7.98 µM (active).

What about the EC50 [21] of the same compound?
The EC50 was 5.74 µM (active).

For `CSCCC(NC(=O)c1c(C)oc2c1CCCC2)C(=O)O` (stereo not given), which IC50 (Leucine aminopeptidase) is on record?
The IC50 was 35.9 µM (active).
